Measured values from PubChem BioAssay (NCI).
Values joined by “and” are separate entries in the source; they are usually repeats but may differ in a detail not shown here. Identical values can stand only once.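 Cells were grown in 96-well plates and exposed to each compound for 48 hours at five concentrations; endpoints were interpolated linearly between bracketing concentrations, or set to the highest concentration if not reached. GI50 = concentration required for 50% inhibition of growth. The concentration for full growth arrest is given as TGI.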

Tests used:
Assay in all cases: NCI tumour cell line growth inhibition, 48 h
[1] = test system: HOP-62 NSCLC
[2] = test system: NCI-H460 lung
[3] = test system: SF-539 CNS
[4] = test system: CCRF-CEM leukemia
[5] = test system: SN12C renal
[6] = test system: SK-MEL-2 melanoma
[7] = test system: RPMI-8226 leukemia
[8] = test system: SF-268 CNS
[9] = test system: KM12 colon
[10] = test system: NCI-H226 lung

SMILES	GI50 [1]	TGI [1]	GI50 [2]	TGI [2]	GI50 [3]	TGI [3]	GI50 [4]	TGI [4]	GI50 [5]	TGI [5]	GI50 [6]	TGI [6]	GI50 [7]	TGI [7]	GI50 [8]	TGI [8]	GI50 [9]	TGI [9]	GI50 [10]	TGI [10]
FC(F)(F)c1[nH]ncc1-c1nc2c(N3CCCCC3)cc3[nH]ncc3c2c2c1CCCC2	0.699 µM	3.12 µM	0.49 µM	1.9 µM	0.567 µM	1.22 µM	1.14 µM	> 50 µM	0.878 µM	> 15.7 µM	0.968 µM	2.31 µM	0.534 µM	2.44 µM	0.786 µM	1.97 µM	0.793 µM	7.95 µM	–	–
Cc1ccc(Nc2[nH]c(C(=O)c3ccc(Cl)cc3)c(N)c2C(=S)Nc2ccccc2)nc1	35.9 µM	> 100 µM	23.9 µM	> 100 µM	19.9 µM	44.8 µM	38.1 µM	> 100 µM	18.5 µM	37.9 µM	28.1 µM	> 100 µM	25.5 µM	> 100 µM	32.7 µM	> 100 µM	16.8 µM	54.9 µM	26 µM	91.3 µM
S=c1nc[nH]c2nc[nH]c12	2.09 µM and 8 µM	> 100 µM and 526 µM and > 750 µM	4.74 µM	> 730 µM	3.02 µM	> 100 µM and 587 µM and 255 µM	0.972 µM	> 100 µM and 310 µM	–	> 100 µM and 680 µM and > 750 µM	> 100 µM and 26.2 µM	> 100 µM and 664 µM and > 750 µM	1.18 µM and 10.3 µM	> 100 µM and 489 µM and 171 µM	12.3 µM	> 100 µM and 681 µM and > 750 µM	–	> 100 µM and 716 µM and > 707 µM	–	> 100 µM and 676 µM and > 750 µM
O=C(c1ccco1)c1ccccc1C(=O)c1ccco1	–	> 100 µM	–	> 100 µM	–	> 100 µM	–	> 100 µM	–	> 100 µM	–	> 100 µM	–	–	–	> 100 µM	–	> 100 µM	–	> 100 µM
CSc1c(S(C)=O)[nH]c2cc(Br)cc(Br)c12 (centres undefined)	–	–	–	35.1 µM	–	47.5 µM	–	58.5 µM	–	33.9 µM	–	–	–	57.7 µM	–	–	–	62.6 µM	–	67.9 µM
COc1nc2c(cc1S(=O)(=O)c1ccccc1)CCc1c-2cnn1Cc1ccccc1	17.7 µM	> 100 µM	7.06 µM	> 100 µM	17 µM	> 100 µM	16.8 µM	> 100 µM	> 100 µM	> 100 µM	30.4 µM	> 100 µM	3.49 µM	> 100 µM	> 100 µM	> 100 µM	3.73 µM	> 100 µM	35.8 µM	> 100 µM
COc1cc(/C=C2\CCCC3C2=Nc2ccccc2NC3c2cc(OC)c(OC)c(OC)c2)cc(OC)c1OC (centres undefined)	1.86 µM	8.4 µM	0.643 µM	2.42 µM	3.9 µM	> 100 µM	0.591 µM	3.6 µM	2.1 µM	14 µM	3.1 µM	8.33 µM	0.389 µM	2.4 µM	2.02 µM	71.5 µM	0.863 µM	2.21 µM	1.93 µM	4.19 µM
CC(C)(C)OC(=O)N1CC(Cn2cc(C(F)(F)F)c3c(Cl)ncnc32)C1	1.95 µM	3.93 µM	2.06 µM	3.99 µM	11.3 µM	24.6 µM	3.05 µM	9.19 µM	2.32 µM	6.12 µM	1.84 µM	3.47 µM	2.67 µM	6.33 µM	1.75 µM	3.4 µM	2.34 µM	5.35 µM	18.9 µM	41.9 µM
COc1cc(-c2nc(-c3nnc(-c4ccc(F)c(Cl)c4)o3)c3ccccn23)cc(OC)c1OC	2.19 µM	4.57 µM	–	–	–	–	> 100 µM	> 100 µM	2.42 µM	> 100 µM	2.27 µM	5.59 µM	1.79 µM	5.65 µM	2.03 µM	5.48 µM	–	–	2.38 µM	6.07 µM
C=CC[N+]1(CCO)CCN=C1CCCCCCCCCCCCC (centres undefined)	1.72 µM	3.09 µM	1.7 µM	3.06 µM	–	–	–	–	1.46 µM	2.85 µM	2.04 µM	3.69 µM	–	–	–	–	–	–	1.7 µM	3.43 µM
CN(C)CCNC(=O)c1cccc2ccc(-c3cccnc3)nc12	–	19.2 µM	–	> 100 µM	–	23.7 µM	–	> 100 µM	–	23.1 µM	–	21.4 µM	–	–	–	26.3 µM	–	98.4 µM	–	22.2 µM
Cc1cc2c(=O)cc(-c3ccc(C(F)(F)F)cc3)oc2c(C(=O)O)c1C	–	–	–	> 100 µM	–	> 100 µM	–	> 100 µM	–	> 100 µM	–	> 100 µM	–	> 100 µM	–	> 100 µM	–	> 100 µM	–	> 100 µM
CCOC(=O)/C(=C/c1ccccc1)C(=O)c1ccccc1	2.01 µM	4.37 µM	3.27 µM	10.9 µM	2.63 µM	7.8 µM	2.61 µM	9.44 µM	3.21 µM	12 µM	–	–	2.25 µM	5.98 µM	4.37 µM	21.1 µM	2.82 µM	7.54 µM	3.48 µM	18.9 µM
COc1cc[c]([Sb]([Br])([CH]=C(C)C)([CH]=C(C)C)[CH]=C(C)C)cc1	29.5 µM	> 100 µM	6.61 µM	54.5 µM	–	–	5.65 µM	> 100 µM	10.9 µM	> 100 µM	5.79 µM	51.3 µM	0.868 µM	5.47 µM	3.52 µM	35.8 µM	1.98 µM	25.6 µM	–	–
CCOC(=O)C1(Br)C(c2ccccc2)NC(=O)N(C2OC(COC(=O)c3ccccc3)C(OC(=O)c3ccccc3)C2OC(=O)c2ccccc2)C1(C)Br (centres undefined)	–	> 100 µM	–	> 100 µM	–	> 100 µM	–	18.8 µM	–	> 100 µM	–	> 100 µM	–	33.2 µM	–	> 100 µM	–	99.6 µM	–	–
COc1ccc(C(=O)Nc2ccc(S(=O)(=O)NCC(=O)O)cc2)cc1	–	–	–	> 100 µM	–	> 100 µM	–	> 100 µM	–	> 100 µM	–	> 100 µM	–	> 100 µM	–	> 100 µM	–	> 100 µM	–	–
